Measured values taken from ChEMBL document CHEMBL3132769, “Fragment growing to retain or alter the selectivity of anchored kinase hinge-binding fragments” (Medchemcomm, 2014).

What was measured:
[1] = target: T1, Serine/threonine-protein kinase 3 (Homo sapiens) (UniProt Q13188); experiment: Inhibition of human full length MST2 expressed in baculovirus assessed as substrate phosphorylation using fluorescence-labelled peptides as substrate at 0.2 uM after 90 mins by microfluidic peptide phosphorylation assay
T1 sequence (whole entry): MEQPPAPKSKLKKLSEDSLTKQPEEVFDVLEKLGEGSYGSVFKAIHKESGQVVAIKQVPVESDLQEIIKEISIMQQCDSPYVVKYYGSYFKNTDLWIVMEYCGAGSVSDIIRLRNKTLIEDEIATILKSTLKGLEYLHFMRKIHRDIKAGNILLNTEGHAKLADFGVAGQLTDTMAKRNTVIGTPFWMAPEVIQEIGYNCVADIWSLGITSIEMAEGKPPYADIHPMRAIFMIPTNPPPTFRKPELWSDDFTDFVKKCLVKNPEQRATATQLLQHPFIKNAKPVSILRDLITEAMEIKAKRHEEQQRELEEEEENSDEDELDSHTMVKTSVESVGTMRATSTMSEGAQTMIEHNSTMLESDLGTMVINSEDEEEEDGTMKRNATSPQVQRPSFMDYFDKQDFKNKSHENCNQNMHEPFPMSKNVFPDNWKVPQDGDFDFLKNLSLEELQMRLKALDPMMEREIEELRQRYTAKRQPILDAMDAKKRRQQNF

[2] = target: T1, Serine/threonine-protein kinase 3 (Homo sapiens); experiment: Inhibition of human full length MST2 expressed in baculovirus assessed as substrate phosphorylation using fluorescence-labelled peptides as substrate at 9 uM after 90 mins by microfluidic peptide phosphorylation assay
[3] = target: Insulin receptor (Homo sapiens) (UniProt P06213); experiment: Inhibition of human INSR catalytic domain expressed in baculovirus assessed as substrate phosphorylation using fluorescence-labelled peptides as substrate at 9 uM after 90 mins by microfluidic peptide phosphorylation assay
[4] = target: Tyrosine-protein kinase Lck (Homo sapiens) (UniProt P06239); experiment: Inhibition of human full length LCK expressed in baculovirus assessed as substrate phosphorylation using fluorescence-labelled peptides as substrate at 2 uM after 90 mins by microfluidic peptide phosphorylation assay
Tyrosine-protein kinase Lck (Homo sapiens), sequence (P06239 2-509 limits assumed): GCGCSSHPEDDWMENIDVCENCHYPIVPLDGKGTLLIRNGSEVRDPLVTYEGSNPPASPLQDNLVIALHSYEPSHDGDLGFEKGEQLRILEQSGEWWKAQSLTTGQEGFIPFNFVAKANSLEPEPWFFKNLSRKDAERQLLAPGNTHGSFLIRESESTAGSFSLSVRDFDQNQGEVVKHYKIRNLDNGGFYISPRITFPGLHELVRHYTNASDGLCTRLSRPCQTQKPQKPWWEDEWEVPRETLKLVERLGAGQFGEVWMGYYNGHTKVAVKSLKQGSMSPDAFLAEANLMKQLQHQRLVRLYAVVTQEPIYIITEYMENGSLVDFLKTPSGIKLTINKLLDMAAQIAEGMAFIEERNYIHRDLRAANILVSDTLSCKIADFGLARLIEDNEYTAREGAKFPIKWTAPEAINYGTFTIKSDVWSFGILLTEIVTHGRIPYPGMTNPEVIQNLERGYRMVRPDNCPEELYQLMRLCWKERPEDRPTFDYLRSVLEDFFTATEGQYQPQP

[5] = target: Fibroblast growth factor receptor 1 (Homo sapiens) (UniProt P11362); experiment: Inhibition of human FGFR1 catalytic domain expressed in baculovirus assessed as substrate phosphorylation using fluorescence-labelled peptides as substrate at 0.1 uM after 90 mins by microfluidic peptide phosphorylation assay
Fibroblast growth factor receptor 1 (Homo sapiens), sequence (P11362 22-822 limits assumed): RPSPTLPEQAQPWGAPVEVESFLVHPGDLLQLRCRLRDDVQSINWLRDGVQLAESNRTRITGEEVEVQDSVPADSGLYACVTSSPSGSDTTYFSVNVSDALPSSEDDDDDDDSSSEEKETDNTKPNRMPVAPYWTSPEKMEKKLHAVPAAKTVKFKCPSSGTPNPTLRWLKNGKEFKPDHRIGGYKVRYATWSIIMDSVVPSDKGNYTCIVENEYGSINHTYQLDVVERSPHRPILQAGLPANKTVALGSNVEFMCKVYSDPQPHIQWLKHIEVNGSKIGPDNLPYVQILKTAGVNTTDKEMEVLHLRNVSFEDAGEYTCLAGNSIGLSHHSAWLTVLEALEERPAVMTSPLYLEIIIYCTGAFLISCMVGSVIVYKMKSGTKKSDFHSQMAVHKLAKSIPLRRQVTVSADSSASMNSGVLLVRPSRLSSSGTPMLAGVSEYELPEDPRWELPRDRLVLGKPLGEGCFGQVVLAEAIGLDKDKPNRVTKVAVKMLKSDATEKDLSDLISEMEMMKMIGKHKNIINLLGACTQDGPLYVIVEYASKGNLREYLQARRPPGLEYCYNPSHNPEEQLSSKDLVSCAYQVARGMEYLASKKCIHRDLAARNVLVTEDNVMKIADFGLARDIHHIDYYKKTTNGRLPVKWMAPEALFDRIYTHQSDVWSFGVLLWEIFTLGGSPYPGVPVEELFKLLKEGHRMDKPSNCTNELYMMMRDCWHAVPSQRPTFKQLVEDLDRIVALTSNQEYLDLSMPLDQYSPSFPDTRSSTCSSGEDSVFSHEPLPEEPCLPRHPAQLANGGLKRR

[6] = target: T2, Serine/threonine-protein kinase D1 (Homo sapiens) (UniProt Q15139); experiment: Inhibition of human full length PKD1 expressed in baculovirus assessed as substrate phosphorylation using fluorescence-labelled peptides as substrate at 95 uM after 90 mins by microfluidic peptide phosphorylation assay
T2 sequence (whole entry): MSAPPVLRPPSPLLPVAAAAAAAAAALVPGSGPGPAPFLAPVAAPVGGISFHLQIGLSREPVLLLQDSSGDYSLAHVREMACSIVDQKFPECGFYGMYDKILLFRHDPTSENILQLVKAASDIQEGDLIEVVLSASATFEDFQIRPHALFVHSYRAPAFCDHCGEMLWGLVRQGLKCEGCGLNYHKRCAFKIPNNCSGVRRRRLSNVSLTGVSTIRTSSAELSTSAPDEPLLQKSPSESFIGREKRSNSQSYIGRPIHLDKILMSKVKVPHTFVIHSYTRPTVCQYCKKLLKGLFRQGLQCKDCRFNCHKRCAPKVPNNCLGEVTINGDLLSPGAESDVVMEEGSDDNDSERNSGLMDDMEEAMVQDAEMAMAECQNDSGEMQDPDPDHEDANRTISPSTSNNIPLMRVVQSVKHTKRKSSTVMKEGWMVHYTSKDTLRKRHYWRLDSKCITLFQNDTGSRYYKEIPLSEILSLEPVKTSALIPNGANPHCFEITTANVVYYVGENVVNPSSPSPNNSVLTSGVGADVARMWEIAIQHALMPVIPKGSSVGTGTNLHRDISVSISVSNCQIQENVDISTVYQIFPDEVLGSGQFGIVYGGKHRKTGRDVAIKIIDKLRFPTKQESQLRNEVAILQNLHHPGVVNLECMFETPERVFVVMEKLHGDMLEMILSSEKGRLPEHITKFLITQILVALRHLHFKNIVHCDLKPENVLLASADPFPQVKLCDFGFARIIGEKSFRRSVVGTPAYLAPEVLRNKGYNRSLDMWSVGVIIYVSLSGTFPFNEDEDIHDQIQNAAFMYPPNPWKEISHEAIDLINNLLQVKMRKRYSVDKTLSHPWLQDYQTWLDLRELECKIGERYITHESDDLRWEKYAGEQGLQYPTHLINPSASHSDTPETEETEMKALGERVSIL

[7] = target: Ribosomal protein S6 kinase alpha-5 (Homo sapiens) (UniProt O75582); experiment: Inhibition of human full length MSK1 expressed in baculovirus assessed as substrate phosphorylation using fluorescence-labelled peptides as substrate at 95 uM after 90 mins by microfluidic peptide phosphorylation assay
Ribosomal protein S6 kinase alpha-5 (Homo sapiens), sequence (O75582 whole entry, looked up, the tested form may be a part): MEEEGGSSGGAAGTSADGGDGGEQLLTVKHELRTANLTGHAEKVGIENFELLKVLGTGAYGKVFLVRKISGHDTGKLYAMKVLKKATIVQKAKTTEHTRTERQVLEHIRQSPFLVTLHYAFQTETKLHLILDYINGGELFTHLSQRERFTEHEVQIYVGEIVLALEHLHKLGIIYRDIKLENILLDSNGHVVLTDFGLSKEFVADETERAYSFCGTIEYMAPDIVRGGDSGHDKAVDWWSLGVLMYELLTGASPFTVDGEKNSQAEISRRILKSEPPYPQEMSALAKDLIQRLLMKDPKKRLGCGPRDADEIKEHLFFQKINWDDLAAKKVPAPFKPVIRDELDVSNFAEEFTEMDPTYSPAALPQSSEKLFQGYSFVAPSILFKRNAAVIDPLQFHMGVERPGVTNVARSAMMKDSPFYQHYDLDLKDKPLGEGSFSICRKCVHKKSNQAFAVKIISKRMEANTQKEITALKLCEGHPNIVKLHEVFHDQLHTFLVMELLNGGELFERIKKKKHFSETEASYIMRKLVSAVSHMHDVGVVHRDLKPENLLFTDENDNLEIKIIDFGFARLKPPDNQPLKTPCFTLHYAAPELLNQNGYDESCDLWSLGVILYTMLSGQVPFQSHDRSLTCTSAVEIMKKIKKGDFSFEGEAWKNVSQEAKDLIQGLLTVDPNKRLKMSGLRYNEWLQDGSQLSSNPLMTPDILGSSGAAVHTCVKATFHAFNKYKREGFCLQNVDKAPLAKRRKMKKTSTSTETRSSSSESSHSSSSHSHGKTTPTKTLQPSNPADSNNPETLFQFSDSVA

[8] = target: Insulin receptor (Homo sapiens) (UniProt P06213); experiment: Inhibition of human INSR catalytic domain expressed in baculovirus assessed as substrate phosphorylation using fluorescence-labelled peptides as substrate at 0.06 uM after 90 mins by microfluidic peptide phosphorylation assay
[9] = target: T3, MAP kinase-activated protein kinase 5 (Homo sapiens) (UniProt Q8IW41); experiment: Inhibition of human full length PRAK expressed in baculovirus assessed as substrate phosphorylation using fluorescence-labelled peptides as substrate at 8 uM after 90 mins by microfluidic peptide phosphorylation assay
T3 sequence (whole entry): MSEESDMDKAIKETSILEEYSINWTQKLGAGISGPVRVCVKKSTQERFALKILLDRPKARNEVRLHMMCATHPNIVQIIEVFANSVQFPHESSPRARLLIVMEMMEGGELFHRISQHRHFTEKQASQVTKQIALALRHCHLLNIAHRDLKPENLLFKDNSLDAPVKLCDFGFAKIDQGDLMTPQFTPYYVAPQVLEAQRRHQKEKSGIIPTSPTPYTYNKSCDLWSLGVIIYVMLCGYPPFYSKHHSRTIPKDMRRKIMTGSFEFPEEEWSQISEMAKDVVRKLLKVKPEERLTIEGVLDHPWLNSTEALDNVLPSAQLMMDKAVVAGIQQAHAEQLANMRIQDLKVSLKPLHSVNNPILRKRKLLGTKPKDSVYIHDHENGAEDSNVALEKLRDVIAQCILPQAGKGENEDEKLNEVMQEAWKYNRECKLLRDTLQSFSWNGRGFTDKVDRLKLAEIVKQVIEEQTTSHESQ

[10] = target: Protein kinase C beta type (Homo sapiens) (UniProt P05771); experiment: Inhibition of human truncated PKC beta1 expressed in baculovirus assessed as substrate phosphorylation using fluorescence-labelled peptides as substrate at 8 uM after 90 mins by microfluidic peptide phosphorylation assay
Protein kinase C beta type (Homo sapiens), sequence (P05771 2-671 limits assumed): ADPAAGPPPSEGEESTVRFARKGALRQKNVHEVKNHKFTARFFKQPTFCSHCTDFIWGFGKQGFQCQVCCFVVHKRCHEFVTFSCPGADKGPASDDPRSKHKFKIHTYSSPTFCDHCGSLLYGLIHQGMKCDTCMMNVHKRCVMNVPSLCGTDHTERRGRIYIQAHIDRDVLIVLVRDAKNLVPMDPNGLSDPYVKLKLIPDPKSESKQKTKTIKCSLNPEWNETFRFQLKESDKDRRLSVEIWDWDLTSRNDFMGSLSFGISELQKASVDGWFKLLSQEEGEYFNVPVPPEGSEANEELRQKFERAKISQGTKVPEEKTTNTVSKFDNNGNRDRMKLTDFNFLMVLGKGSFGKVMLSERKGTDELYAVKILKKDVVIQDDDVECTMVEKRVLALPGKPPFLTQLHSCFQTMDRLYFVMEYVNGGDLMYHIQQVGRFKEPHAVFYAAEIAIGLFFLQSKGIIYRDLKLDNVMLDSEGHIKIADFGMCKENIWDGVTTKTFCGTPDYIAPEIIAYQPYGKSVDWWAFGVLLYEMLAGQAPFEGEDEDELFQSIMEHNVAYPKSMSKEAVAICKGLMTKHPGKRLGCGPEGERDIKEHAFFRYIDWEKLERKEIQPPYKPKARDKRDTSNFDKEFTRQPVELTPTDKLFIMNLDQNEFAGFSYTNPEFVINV

[11] = target: Aurora kinase B (Homo sapiens) (UniProt Q96GD4); experiment: Inhibition of human full length AurB expressed in baculovirus assessed as substrate phosphorylation using fluorescence-labelled peptides as substrate at 70 uM after 90 mins by microfluidic peptide phosphorylation assay
Aurora kinase B (Homo sapiens), sequence (Q96GD4 whole entry, the tested form may be a part): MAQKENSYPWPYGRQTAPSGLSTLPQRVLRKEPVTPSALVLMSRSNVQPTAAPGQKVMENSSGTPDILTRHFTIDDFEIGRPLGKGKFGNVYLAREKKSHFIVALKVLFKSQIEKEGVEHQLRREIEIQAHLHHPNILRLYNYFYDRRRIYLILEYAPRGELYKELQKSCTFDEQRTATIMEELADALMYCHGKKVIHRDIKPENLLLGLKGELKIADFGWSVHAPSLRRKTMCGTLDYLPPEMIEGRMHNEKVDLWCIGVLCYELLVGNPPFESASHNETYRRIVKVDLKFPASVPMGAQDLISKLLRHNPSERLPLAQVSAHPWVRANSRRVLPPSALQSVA

[12] = target: Tyrosine-protein kinase ABL2 (Homo sapiens) (UniProt P42684); experiment: Inhibition of human truncated Arg expressed in baculovirus assessed as substrate phosphorylation using fluorescence-labelled peptides as substrate at 1000 uM after 90 mins by microfluidic peptide phosphorylation assay
Tyrosine-protein kinase ABL2 (Homo sapiens), sequence (P42684 whole entry, the tested form may be a part): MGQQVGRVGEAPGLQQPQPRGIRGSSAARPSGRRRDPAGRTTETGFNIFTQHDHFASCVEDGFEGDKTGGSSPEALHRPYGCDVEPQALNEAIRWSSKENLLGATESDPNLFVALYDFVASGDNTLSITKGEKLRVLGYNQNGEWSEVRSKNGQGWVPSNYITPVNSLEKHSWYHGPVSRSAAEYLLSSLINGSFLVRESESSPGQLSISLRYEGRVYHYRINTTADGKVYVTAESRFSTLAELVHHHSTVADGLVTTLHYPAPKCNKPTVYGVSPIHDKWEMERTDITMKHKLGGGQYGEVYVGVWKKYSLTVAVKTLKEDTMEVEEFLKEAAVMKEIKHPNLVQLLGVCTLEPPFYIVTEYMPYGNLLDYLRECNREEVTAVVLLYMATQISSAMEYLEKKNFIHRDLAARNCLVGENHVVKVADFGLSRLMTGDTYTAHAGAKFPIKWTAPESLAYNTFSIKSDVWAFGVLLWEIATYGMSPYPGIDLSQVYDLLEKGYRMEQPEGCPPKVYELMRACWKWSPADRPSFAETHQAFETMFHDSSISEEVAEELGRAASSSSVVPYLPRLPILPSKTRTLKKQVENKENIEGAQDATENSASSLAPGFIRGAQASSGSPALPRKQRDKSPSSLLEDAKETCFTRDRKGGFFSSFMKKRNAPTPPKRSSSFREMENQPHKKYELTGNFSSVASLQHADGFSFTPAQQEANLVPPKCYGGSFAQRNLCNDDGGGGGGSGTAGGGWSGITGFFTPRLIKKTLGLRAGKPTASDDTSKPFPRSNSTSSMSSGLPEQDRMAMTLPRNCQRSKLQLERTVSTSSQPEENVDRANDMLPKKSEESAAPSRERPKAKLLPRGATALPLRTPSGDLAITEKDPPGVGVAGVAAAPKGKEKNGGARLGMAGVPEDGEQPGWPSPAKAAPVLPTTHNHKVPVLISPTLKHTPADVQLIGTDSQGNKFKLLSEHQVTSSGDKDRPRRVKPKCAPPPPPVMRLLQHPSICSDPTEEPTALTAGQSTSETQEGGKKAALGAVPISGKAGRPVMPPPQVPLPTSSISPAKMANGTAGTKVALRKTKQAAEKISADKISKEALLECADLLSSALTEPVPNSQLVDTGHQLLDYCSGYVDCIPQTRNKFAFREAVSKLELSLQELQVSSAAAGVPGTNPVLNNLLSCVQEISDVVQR

Clc1ccc(C2(c3ccc(-c4ncnc5[nH]cnc45)cc3)CCNCC2)cc1
inhibition [1]: 2%

NCC1CN(c2ncnc3[nH]c4cnccc4c23)CCO1 (configuration not stated)
inhibition [2]: 81%
inhibition [3]: 2.5%

NC1CCN(c2ncnc3[nH]ccc23)CC1
inhibition [4]: 4.5%

C[C@H](CN(C)C)Oc1nc(Nc2cc3cccc(Cl)c3cn2)cnc1C#N
inhibition [5]: 2.5%

NCCc1ccc(-c2ncnc3[nH]cnc23)cc1
inhibition [6]: 44%
inhibition [7]: 76%

NC1(Cc2ccc(Cl)cc2)CCN(c2ncnc3[nH]ccc23)CC1
inhibition [8]: 6%

NCC1CCN(c2ncnc3[nH]ccc23)CC1
inhibition [9]: 51.5%
inhibition [10]: 50.5%

CNCc1ccc(-c2ncnc3[nH]cnc23)cc1
inhibition [11]: 85%

c1cnc2[nH]ccc2c1
inhibition [12]: 40%
